Measured values as given in the NIST ThermoML archive (doi:10.1021/je7003066).
± gives the expanded uncertainty stated by the source.

Tests used:
[1] = refractive index (Na D-line) (dimensionless); conditions: 101.33 kPa, Liquid, Standard Abbe refractometry
[2] = molar heat capacity at constant pressure; conditions: 101.33 kPa, Liquid, Small sample (50 mg) DSC
[3] = 101.33 kPa, Liquid; for viscosity: Capillary tube (Ostwald / Ubbelohde) method

SMILES: CC1CCCO1 (configuration not stated) [2-methyltetrahydrofuran]
- refractive index ([1]; 293.15 K): 1.4085 ± 0.0008
- refractive index ([1]; 303.15 K): 1.4017 ± 0.0007
- refractive index ([1]; 313.15 K): 1.3959 ± 0.0007
- molar heat capacity at constant pressure ([2]; 293.15 K): 155.3 ± 3.1 J/K/mol
- molar heat capacity at constant pressure ([2]; 303.15 K): 158.6 ± 3.2 J/K/mol
- molar heat capacity at constant pressure ([2]; 313.15 K): 162.1 ± 3.2 J/K/mol
- mass density ([3]; 293.15 K): 852.95 ± 0.68 kg/m3
- viscosity ([3]; 293.15 K): 0.492 ± 0.04 mPa·s
- mass density ([3]; 303.15 K): 842.8 ± 0.7 kg/m3
- viscosity ([3]; 303.15 K): 0.443 ± 0.04 mPa·s
- mass density ([3]; 313.15 K): 832.38 ± 0.72 kg/m3
- viscosity ([3]; 313.15 K): 0.416 ± 0.04 mPa·s
